target: T1, human HPK1 (MAP4K1) (Homo sapiens, UniProt Q92918); assay: Biochemical assay for activity against HPK1 (ADP-Glo, MBP substrate); settings: recombinant human HPK1 kinase domain, 1 nM enzyme, ADP-Glo luminescence
T1 construct: Recombinant human HPK1 kinase domain was obtained from ThermoFisher (Cat. #PV6357) and SignalChem (Cat. #M23-11G); purchased ThermoFisher; SignalChem PV6357; M23-11G
T1 sequence (Q92918 17-274 limits assumed): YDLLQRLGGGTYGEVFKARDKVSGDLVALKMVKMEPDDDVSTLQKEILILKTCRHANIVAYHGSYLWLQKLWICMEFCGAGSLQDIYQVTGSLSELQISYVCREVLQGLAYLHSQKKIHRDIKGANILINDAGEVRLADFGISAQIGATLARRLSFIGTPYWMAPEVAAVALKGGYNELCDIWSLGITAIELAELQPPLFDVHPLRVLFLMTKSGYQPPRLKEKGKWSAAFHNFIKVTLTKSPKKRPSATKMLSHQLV
Excerpt: These compounds are made by the synthetic methods described earlier herein. Example 227 Biochemical Assay for Testing Compounds for Activity against HPK1
The enzymatic activity of human HPK1 (MAP4K1) was monitored in a biochemical assay in the presence or absence of compounds, using a peptide substrate (myelin basic protein, MBP), with an ADP-Glo assay kit (Promega, Cat. #V9103). An increase in phosphorylation of the peptide by HPK1 was indicative of its kinase activity.
Recombinant human HPK1 kinase domain was obtained from ThermoFisher (Cat. #PV6357) and SignalChem (Cat. #M23-11G). A 1 nM HPK1 kinase enzyme solution was prepared from the HPK1 stock received from the commercial supplier using an assay buffer containing 50 mM HEPES (4-(2-hydroxyethyl)-1-piperazineethanesulfonic acid) pH 7.5 (Fisher Scientific, Cat. #H1035), 150 mM NaCl (Fisher Scientific, Cat. #50843067), 3 mM TCEP-HCl (Tris(2-carboxyethyl)phosphine hydrochloride; Fisher Scientific, Cat. #PIPG82080), 10 mM MgCl2 (Fisher Scientific, Cat. #AM9530G), 0.005% Tween-20 (Fisher Scientific, Cat. #BP337500) and 0.01% BSA (bovine serum albumin; ThermoFisher, Cat. #15260037), in ultra-pure water. The final concentration of the assay buffer was 770 nM. A 5 mM stock solution of the peptide substrate was prepared using […] MBP (Myelin Basic Protein, Active Motif, Cat. #31314), 10 mM ATP (adenosine 5′-triphosphate; Sigma-Aldrich, Cat. #GE27-2056-01) and of assay buffer.
Test compounds were dissolved in DMSO (dimethyl sulfoxide) at 10 mM and then serial dilutions were prepared using a ViaFlow assist multichannel dispenser (Integra ViaFlo). 20 nL of test compounds at various concentrations were dispensed into a 1536-well assay plate (Corning Cat. #7247) using an Echo Nanoliter dispenser (Labcyte ECHO 550). […] of a 1 nM solution of HPK1 kinase enzyme diluted in assay buffer was added to the compound-containing plate using a Mantis Microliter dispenser (Formulatrix Mantis), covered with a lid, and incubated for 15 minutes at room temperature. 50 nL of a 5 mM stock solution of the peptide substrate (MBP) were added using the Echo Nanoliter dispenser. The plate was covered with a lid, centrifugated at 500 rpm for 1 minute and incubated for 2 hours at room temperature. […] of ADP-Glo reagent A was added using the Mantis Microliter dispenser, centrifugated at 500 rpm for 30 seconds and incubated for 40 minutes at room temperature. […] of ADP-Glo reagent B was added using the Mantis Microliter dispenser, centrifugated at 500 rpm for 30 seconds and incubated for 30 minutes at room temperature. Peptide phosphorylation was measured by luminescence on an Envision plate reader (PerkinElmer).
The HPK1 biochemical IC50 activity levels of the compounds of Examples 1-225 were tested using this assay and are shown in Table 2.

Row | IC50 | SMILES
1 | < 100 nM | COc1cc2c(cc1Nc1ncc3cnn([C@H](C)CCO)c3n1)CN(C)CC2 [Example 99, (3R)-3-[6-[(6-methoxy-2-methyl-3,4-dihydro-1H-isoquinolin-7-yl)amino]pyrazolo[3,4-d]pyrimidin-1-yl]butan-1-ol]
2 | < 100 nM | COc1cc2c(cc1Nc1ncc3cnn([C@H]4CC[C@H](O)CC4)c3n1)CN(CCO)CC2 [Example 156, trans-4-(6-((2-(2-hydroxyethyl)-6-methoxy-1,2,3,4-tetrahydroisoquinolin-7-yl)amino)-1H-pyrazolo[3,4-d]pyrimidin-1-yl)cyclohexan-1-ol]
3 | < 100 nM | COc1cc2c(cc1Nc1ncc3cnn(C[C@@H]4CCC[C@H]4CO)c3n1)CN(C)CC2 (racemic) [Example 160, Rac-trans-2-[[6-[(6-methoxy-2-methyl-3,4-dihydro-1H-isoquinolin-7-yl)amino]pyrazolo[3,4-d]pyrimidin-1-yl]methyl]cyclopentyl]methanol]
4 | < 100 nM | COc1cc2c(cc1Nc1ncc3cnn([C@H]4CCC[C@H](C(N)=O)C4)c3n1)CN(C)CC2 (stereo in doubt) [Example 40, (1S,3S)-3-(6-((6-methoxy-2-methyl-1,2,3,4-tetrahydroisoquinolin-7-yl)amino)-1H-pyrazolo[3,4-d]pyrimidin-1-yl)cyclohexane-1-carboxamide]
5 | < 100 nM | COc1cc2c(cc1Nc1ncc3cnn(CCC(N)=O)c3n1)CN(C)CC2 [Example 86, 3-[6-[(6-methoxy-2-methyl-3,4-dihydro-1H-isoquinolin-7-yl)amino]pyrazolo[3,4-d]pyrimidin-1-yl]210ropenamide]
6 | < 100 nM | COc1cc2c(cc1Nc1ncc3cnn(C[C@H](C)NC(C)=O)c3n1)CN(C)CC2 [Example 93, N-[(1S)-2-[6-[(6-methoxy-2-methyl-3,4-dihydro-1H-isoquinolin-7-yl)amino]pyrazolo[3,4-d]pyrimidin-1-yl]-1-methyl-ethyl]acetamide]
7 | < 100 nM | COc1cc2c(cc1Nc1ncc3cnn(C[C@@H]4[C@@H](C)CCN4C(C)=O)c3n1)CN(CCO)CC2 [Example 223, 1-((2S,3S)-2-((6-((2-(2-hydroxyethyl)-6-methoxy-1,2,3,4-tetrahydroisoquinolin-7-yl)amino)-1H-pyrazolo[3,4-d]pyrimidin-1-yl)methyl)-3-methylpyrrolidin-1-yl)ethan-1-one]
8 | < 100 nM | COc1cc2c(cc1Nc1ncc3c(C)nn([C@H]4CC[C@@H](C(N)=O)CC4)c3n1)CN(C)CC2 [Example 51, (cis)-4-(6-((6-methoxy-2-methyl-1,2,3,4-tetrahydroisoquinolin-7-yl)amino)-3-methyl-1H-pyrazolo[3,4-d]pyrimidin-1-yl)cyclohexane-1-carboxamide]
9 | < 100 nM | CO[C@H]1CC[C@H](n2ncc3cnc(Nc4ccc5c(c4)CN(C)CC5)nc32)CC1 [Example 35, N-(1-((1r,4r)-4-methoxycyclohexyl)-1H-pyrazolo[3,4-d]pyrimidin-6-yl)-2-methyl-1,2,3,4-tetrahydroisoquinolin-7-amine]
10 | 100 to 250 nM | COc1cc2c(cc1Nc1ncc3cnn(C[C@@H](C)NC(C)=O)c3n1)CN(C)CC2 [Example 97, N-[(1R)-2-[6-[(6-methoxy-2-methyl-3,4-dihydro-1H-isoquinolin-7-yl)amino]pyrazolo[3,4-d]pyrimidin-1-yl]-1-methyl-ethyl]acetamide]
11 | < 100 nM | COc1cc2c(cc1Nc1ncc3cnn(C[C@H]4CCCN(S(C)(=O)=O)C4)c3n1)CN(C)CC2 [Example 143, 6-methoxy-2-methyl-N-[1-[[(3R)-1-methylsulfonyl-3-piperidyl]methyl]pyrazolo[3,4-d]pyrimidin-6-yl]-3,4-dihydro-1H-isoquinolin-7-amine]
12 | < 100 nM | COc1cc2c(cc1Nc1ncc3cnn(CCNS(C)(=O)=O)c3n1)CN(C)CC2 [Example 88, N-[2-[6-[(6-methoxy-2-methyl-3,4-dihydro-1H-isoquinolin-7-yl)amino]pyrazolo[3,4-d]pyrimidin-1-yl]ethyl]methanesulfonamide]
13 | < 100 nM | COc1cc2c(cc1Nc1ncc3cnn(C[C@@H]4[C@@H]5C[C@@H]5CN4C(C)=O)c3n1)CN(C)CC2 [Example 137, 1-((1R,2S,5S)-2-((6-((6-methoxy-2-methyl-1,2,3,4-tetrahydroisoquinolin-7-yl)amino)-1H-pyrazolo[3,4-d]pyrimidin-1-yl)methyl)-3-azabicyclo[3.1.0]hexan-3-yl)ethan-1-one]
14 | 100 to 250 nM | COc1cc2c(cc1Nc1ncc3cnn(C[C@@H]4CCN4C(C)=O)c3n1)CN(C)CC2 [Example 133, (S)-1-(2-((6-((6-methoxy-2-methyl-1,2,3,4-tetrahydroisoquinolin-7-yl)amino)-1H-pyrazolo[3,4-d]pyrimidin-1-yl)methyl)azetidin-1-yl)ethan-1-one]
15 | < 100 nM | COc1cc2c(cc1Nc1ncc3cnn([C@H]4C[C@H](CO)C4)c3n1)CN(C)CC2 [Example 65, trans-[3-[6-[(6-methoxy-2-methyl-3,4-dihydro-1H-isoquinolin-7-yl)amino]pyrazolo[3,4-d]pyrimidin-1-yl]cyclobutyl]methanol]
16 | < 100 nM | CN1CCc2ccc(Nc3ncc4cnn(C5CCCCC5)c4n3)cc2C1 [Example 102, N-(1-cyclohexyl-1H-pyrazolo[3,4-d]pyrimidin-6-yl)-2-methyl-1,2,3,4-tetrahydroisoquinolin-7-amine]
17 | < 100 nM | COc1cc2c(cc1Nc1ncc3c(C)nn(CC[C@H](C)O)c3n1)CN(C)CC2 [Example 90, (2S)-4-[6-[(6-methoxy-2-methyl-3,4-dihydro-1H-isoquinolin-7-yl)amino]-3-methyl-pyrazolo[3,4-d]pyrimidin-1-yl]butan-2-ol]
18 | < 100 nM | COc1cc2c(cc1Nc1ncc3c(C)nn(C4COC4)c3n1)CN(C)CC2 [Example 3, 6-methoxy-2-methyl-N-[3-methyl-1-(oxetan-3-yl)pyrazolo[3,4-d]pyrimidin-6-yl]-3,4-dihydro-1H-isoquinolin-7-amine]
19 | < 100 nM | CNC(=O)[C@]1(C)C[C@@H](n2ncc3cnc(Nc4cc5c(cc4OC)CCN(C)C5)nc32)C1 [Example 73, trans-3-[6-[(6-methoxy-2-methyl-3,4-dihydro-1H-isoquinolin-7-yl)amino]pyrazolo[3,4-d]pyrimidin-1-yl]-N,1-methyl-cyclobutanecarboxamide]
20 | < 100 nM | COc1cc2c(cc1Nc1ncc3cnn(CCNC(C)=O)c3n1)CN(C)CC2 [Example 87, N-[2-[6-[(6-methoxy-2-methyl-3,4-dihydro-1H-isoquinolin-7-yl)amino]pyrazolo[3,4-d]pyrimidin-1-yl]ethyl]acetamide]
21 | < 100 nM | COc1cc2c(cc1Nc1ncc3cnn(CC4(F)CC4)c3n1)CN(C)CC2 [Example 204, N-(1-((1-fluorocyclopropyl)methyl)-1H-pyrazolo[3,4-d]pyrimidin-6-yl)-6-methoxy-2-methyl-1,2,3,4-tetrahydroisoquinolin-7-amine]
22 | < 100 nM | COc1cc2c(cc1Nc1ncc3cnn(C[C@@H]4C[C@@H]5C[C@@H]5N4C(C)=O)c3n1)CN(C)CC2 [Example 216, 1-[(1S,3S,5S)-3-[[6-[(6-methoxy-2-methyl-3,4-dihydro-1H-isoquinolin-7-yl)amino]pyrazolo[3,4-d]pyrimidin-1-yl]methyl]-2-azabicyclo[3.1.0]hexan-2-yl]ethanone]
23 | < 100 nM | COc1cc2c(cc1Nc1ncc3cnn([C@H]4CC[C@H](O)CC4)c3n1)CN(C)CC2 [Example 49, trans-4-(6-((6-methoxy-2-methyl-1,2,3,4-tetrahydroisoquinolin-7-yl)amino)-1H-pyrazolo[3,4-d]pyrimidin-1-yl)cyclohexan-1-ol]
